Test [1] concerns microtubule cytoskeleton of cultured human CG neuroblastoma cells. The experiment in a line: Antimicrotubule activity (tubulin immunofluorescence microscopy). The class given is cell-based. The note with it: Neuroblastoma cell, 2 hr at 37° C., 0.5% DMSO in KRH, read-out: Concentration where microtubule destabilization occurs. How it is done:
The compounds of the invention according to formula I are effective in destabilizing microtubules, thus are useful in treating certain neoplastic diseases. Indirect immunofluorescence microscopy using the monoclonal antibodies to tubulin is used herein to determine the activity of the compounds of this invention in promoting depolymerization of the microtubule cytoskeleton in cultured cells. The following assay was employed.
Cultured human CG neuroblastoma cells were seeded 1:3 from confluent cultures onto sterile 11×22 mm coverslips in 6 well tissue culture plates 16 hr prior to treatment. The following day, the tissue culture medium is removed and the cells are exposed to various concentrations of compounds of this invention in Krebs Ringer Hepes (KRH) buffer containing a final concentration of 0.5% DMSO as carrier. Incubations were performed at 37° C. in a humidified 5% CO2 atmosphere for 2 hr. After incubation, the cells were fixed in 3% TEM grade formaldehyde in PBS for 45 min at room temperature.
To visualize the effects of the compounds of the invention on the microtubule cytoskeleton, the cells were processed for tubulin immunofluorescence. Briefly, the cells were permeabilized in 0.5% Triton-X 100 in PBS for 5 min. The cells were washed 2× with PBS and aldehydes reduced using 0.5 mg/ml NaBH4 in PBS for 5 min. Subsequently, the cells were blocked for 10 min in 1.5% BSA and 1.5% nonfat dry milk in PBS (blocking solution, BS) for 10 min. The cells were then incubated for 30 min at 37° C. with the monoclonal antibody Tu27B which recognizes b-tubulin (dilution 1:20 in BS). Subsequently, the cells were washed 2× in PBS and once in BS. The cells were then incubated for 30 min at 37° C. with sheep antimouse IgG conjugated to FITC. After incubation, the cells were washed 2× in PBS and once in BS and incubated. for 30 min at 37° C. with rabbit antisheep IgG conjugated to FITC. The cells were rinsed in PBS, counterstained with Hoechst 33285 in PBS (1 μg/ml), and rinsed in PBS. The coverslips were mounted in 9:1 glycerol:PBS containing 1 mg/ml p-phenylenediamine and sealed with nail polish.
The cells were viewed using a Jenalumar epifluorescence microscope equipped with the proper filters for Fluorescein Isothiocyanate (FITC) excitation and emission. Lack of effect of a compound is evidenced by the presence of an intact microtubule network in interphase cells, or a mitotic spindle dividing cells. Antineoplastic compounds of the invention at effective doses result in the disapperance of microtubules in both interphase and mitotic cells.

The subject of a further test is Candida albicans SRI 523. Put plainly: agar disc diffusion assay, C. albicans. It counts as cell-based. The note with it: SRI523, 240 ug/disc, about 24 hr at 37° C., Mueller-Hinton agar, read-out: Diameter of the zone of inhibition, C. albicans. How it is done: (§1) The activity of the compounds is determined using the following assay. The compound is dissolved in DMSO at a concentration of 6 mg/ml and then diluted with water to a final concentration of 3 mg/ml in 50% DMSO (% DMSO was shown not to be inhibitory to the test organisms). An aliquot (0.08 ml) of each drug solution was transferred to filter paper discs (12.7 mm diameter, Scmeicherand Schuell) for use in the agar diffusion assay. The concentration of each drug on the filter paper disc was 240 ug/disc. The test organisms included the following: Gram-positive aerobes (Staphylococcus aureus SRI 1323, Streptococcus pneumoniae SRI 1167); Gram-negative aerobe (Proteus vulgaris SRI 180); and the yeast Candida albicans SRI 523. An agar disc diffusion assay was used to evaluate the antimicrobial activity of the test compounds. Briefly, cultures were prepared from 16-20 hr agar slant cultures by inoculating in physiological saline to a turbidity equivalent to a #0.5 McFarland turbidity standard for the bacteria and a #3 McFarland standard for C. albicans. The surface of Mueller-Hinton agar (15×100 mm plates, mm) were evenly inoculated with each standardized culture using a cotton swab. Filter paper discs containing the drug concentration listed above were then placed on the inoculated agar plates along with a disc containing the solvent used to dissolve each drug. The plates were incubated at 37° C. for about 24 hr and the diameters of the zones of inhibition measured with a vernier caliper. Positive control drugs consisted of streptomycin for use with the bacterial strains and 5-fluorocytosine for use with C. albicans. The positive control drugs were assayed as described above for the compounds of the present invention using the same concentration.

A further test concerns Proteus vulgaris SRI 180. The experiment in a line: agar disc diffusion assay, P. vulgaris. It counts as cell-based. The note with it: SRI180, 240 ug/disc, about 24 hr at 37° C., Mueller-Hinton agar, read-out: Diameter of the zone of inhibition, P. vulgaris. As for the experimental part:
as §1
Background: A growth-free zone around the sample is the usual read-out of agar diffusion tests.

Test [2] has as its system Streptococcus pneumoniae SRI 1167. Put plainly: agar disc diffusion assay, S. pneumoniae. The note with it: 240 ug/disc, about 24 hr at 37° C.; for zone of inhibition at 240 µg/disc: Streptococcus pneumoniae, SRI1167, Mueller-Hinton agar, read-out: Diameter of the zone of inhibition, S. pneumoniae. The class given is cell-based. As for the experimental part:
as §1

Test [3] concerns Staphylococcus aureus SRI 1323. The experiment in a line: agar disc diffusion assay, S. aureus. It counts as cell-based. The note with it: SRI1323, 240 ug/disc, about 24 hr at 37° C., Mueller-Hinton agar, read-out: Diameter of the zone of inhibition, S. aureus. How it is done: as §1
Test [4] has as its system TG3 immunoreactivity in OKA treated MSN1a cells. Put plainly: inhibition of TG3 immunoreactivity in OKA treated MSN1a cells (ELISA). The class given is cell-based, human. The note with it: Homo sapiens; 1 μM OKA, 0-64 μM drug, 2 hrs at 37° C., TG3 antibody. How it is done:
Therefore, the therapeutic activity of the compounds of the invention was assessed by the ability of these agents to affect the production of abnormally phosphorylated epitopes pertinent to the production of PHFs of AD, utilizing a human neuroblastoma cell line (MSN1a) in the presence of the protein phosphatsse inhibitor, okadaic acid (OKA).
This assay can thus be used to determine whether a drug is capable of preventing or intervening in AD by attenuating the production of abnormally phosphorylated paired helical filament epitopes associated with AD. To determine whether a drug is capable of preventing or intervening in AD activity, the MSN1a cells containing tau and associated proteins are treated with OKA capable of greatly increasing immnunoreactivity of the MSN1a cells with AD specific monoclonal antibodies. Then, either prior to or concomitantly with OKA treatment, a compound of the present invention is added to the culture. If the compound prevents the induction of the AD epitopes in the MSN1a cells treated with OKA, then it is said to have anti-AD activity. If the AD-specific antibodies are highly reactive with the neuroblastoma cells following OKA treatment in the presence of compound, then the compound is said to be ineffectual against AD.
The MSN1a human neuroblastoma line was subcloned from a population of MSN cells obtained from the laboratory of Dr. Peter Davies (Albert Einstein College of Medicine, New York, N.Y.). Cells were grown and maintained in flasks in RPMI 1640 medium, supplemented with 15% fetal calf serum, 100 U/ml penicillin, 100 U/ml Streptomycin, 0.5 ug/ml fungizone under 7.5% CO2 at 37° C.
Stock solutions of drugs were prepared by dissolving the anhydrous powders to final concentrations of either 10 or 20 mM in 50% aqueous or 100% dimethyl sulfoxide (DMSO), respectively. […]
MSN cells grown in 225 cm^2 flasks are removed from the incubator, their medium decanted and replaced with 50 ml pre-warmed KRH. […] The supernatants are discarded and the cell pellets are resuspended, the cells counted and diluted to a density of 2×10^4 cells/50 ml. […]
Background: In an ELISA, binding on a coated surface is turned into a signal by an enzyme label.

Counter-ions that a name gives are not always drawn.

The zone of inhibition is the extent of the growth-free halo in a diffusion test. Take `O=C(CCN1CCN(Cc2ccccc2)CC1)c1ccc([N+](=O)[O-])cc1` [Example 5, 1-(p-Nitrophenyl)-3-(4'-benzyl-1'-piperazinyl)-1-propanone dihydrochloride]: the minimal effective concentration in test [1] is 4 µM. Besides, the zone of inhibition at 240 µg/disc in the test with Candida albicans SRI 523 stood at 17.6 mm; in the test on Proteus vulgaris SRI 180 it was 17.3 mm; in test [2] it was 29.9 mm; in test [3], 22.8 mm.

The IC50 is the midpoint of a concentration-inhibition curve. A higher IC50 goes with lower potency. For the compound `CSc1ccc(C(=O)CCN2CCN(Cc3ccccc3)CC2)cc1` [Example 14, 1-(p-Methylthiophenyl)-3-(4'-benzyl-1'-piperazinyl)-1-propanone dihydrochloride], the IC50 in test [4] amounted to 5.8 µM.

For the compound `O=C(CCN1CCN(Cc2ccccc2)CC1)c1ccc(F)c2ccccc12` [Example 21, 1-(4"-Fluoronaphth-1"-yl)-3-(4'-benzyl-1'-piperazinyl)-1-propanone dihydrochloride], in test [1], the minimal effective concentration is 20 µM. The zone of inhibition at 240 µg/disc in the test with Candida albicans SRI 523 came out at 26.6 mm; with Proteus vulgaris SRI 180, 0 mm; in test [2], 40.7 mm; in test [3], 33.8 mm.

In the case of `O=C(CCN1CCN(Cc2ccccc2)CC1)c1ccc(F)c(Br)c1` [Example 25, 1-(p-Fluoro-m-bromophenyl)-3-(4'-benzyl-1'-piperazinyl)-1-propanone dihydrochloride], the zone of inhibition at 240 µg/disc in the test with Candida albicans SRI 523 turned out to be 26 mm; in the test on Proteus vulgaris SRI 180, 16 mm; in test [2], 36.3 mm; in test [3] it was 27.5 mm.

With `O=C(CCN1CCN(C(=O)c2ccccc2C(F)(F)F)CC1)c1ccccc1F` [Example 43, 1-(o-Fluorophenyl)-3-[4'-(o-trfuoromethylbenzoyl)-1'-piperazinyl]-1-propanone hydrochloride], the zone of inhibition at 240 µg/disc was found to be 22.5 mm with Candida albicans SRI 523, 15.9 mm in the test with Proteus vulgaris SRI 180, 25.3 mm in test [2] and 17.7 mm in test [3].

`O=C(CCN1CCN(C(=O)c2cccc(F)c2F)CC1)c1ccc([N+](=O)[O-])cc1` [Example 63, 1-(p-Nitrophenyl)-3-[4'-(2",3"-difluorobenzoyl)-1'-piperazinyl]-1-propanonedlhydrochlorde] showed an IC50 in test [4] of 7.3 µM.

With `O=C(CCN1CCN(C(c2ccccc2)c2ccc(Cl)cc2)CC1)c1ccc(Br)s1` (stereo not shown) [Example 78, 1-(5"-Bromo-2"-thienyl)-3-[4'-(1'"-p-chlorophenyl-1'"-phenylmethyl)-1'-piperazinyl]-1-propanone dihydrochloride], the zone of inhibition at 240 µg/disc in the test on Candida albicans SRI 523 came to 15.2 mm; in the test on Proteus vulgaris SRI 180, 14.5 mm; in test [2], 19.7 mm; in test [3], 16.2 mm.

For `O=C(CCN1CCN(Cc2ccccc2)CC1)c1csc([N+](=O)[O-])c1` [Example 80, 1-(5"-Nitro-3"-thienyl)-3-(4'-benzyl-1'-piperazinyl)-1-propanone dihydrochloride], the zone of inhibition at 240 µg/disc in the test on Candida albicans SRI 523 is 14.5 mm; in the test with Proteus vulgaris SRI 180 it was 13.8 mm; in test [3] it was 17.2 mm. Further, in test [2] (zone too large to measure), the “Diameter of the zone of inhibition, S. pneumoniae (symbol)” value is “+”.

These data come from patent publication US6306857A, “Methods for treating or preventing alzheimer's disease using substituted 1-aryl-3-piperazin-1'-yl propanones” (Molecular Geriatrics Corporation, priority 1999, dated 2001).
